Reference: patent publication US20240352066A1, “ANTIMICROBIAL COMPOUNDS AND THE METHOD OF USE” (priority 2021, published 2024)
Where a SMILES comes first, the peptide text is derived from it. [ ]: non-standard residue; d: D form. N(tridecyl)Gly = CCCCCCCCCCCCCNCC(=O)O; Gly(N-2-aminoethyl) = NCCNCC(=O)O; Gly(N-cHex) = O=C(O)CNC1CCCCC1; Nleu = CC(C)CNCC(=O)O; Nlys = NCCCCNCC(=O)O

How the values were obtained:
[1] = system: human red blood cells (hRBC); assay: Hemolytic activity against human red blood cells; format: cell-based; details: for hRBC HC10: Example 2, same donor sample of hRBCs
Method: Hemolytic activity was determined using single donor human red blood cells (hRBC). hRBCs were washed with PBS and centrifuged (1000 RPM; 10 minutes) three times, resuspended in PBS and aliquoted (100 μL) in 96 well plates. 2-fold serial dilutions of 10× peptoid final concentrations in PBS were prepared and added to wells in triplicate. PBS was used as a vehicle control and 1% Triton X-100 as a positive control. Plates were incubated for 1 hour (37° C.; 5% CO2) then centrifuged (1000 RPM; 10 minutes) and supernatant was diluted 1:20 into PBS in a new 96-well plate. Plates were read on a SpectraMax M5 plate reader (Abs. 405 nm). Percent hemolysis was determined by the following equation: […]
GraFit was used to determine concentrations at 50% hemolytic activity (HC50) and the Hill coefficient (H). Hemolytic activity at 10% (HC10) was then determined by the following equation: […]
The hemolytic activity of select peptoids was determined as done previously (Green et al. ACS medicinal chemistry letters 12 9, 1470-1477 (2021); Middleton et al. Bioorganic & medicinal chemistry letters 28 22, 3514-3519 (2018)). Selected peptoids were prepared in 2-fold serial dilutions in PBS at the desired concentrations. Human red blood cells (hRBCs, 9 mL) were centrifuged at 1000 rpm for 10 minutes, and the supernatant was removed and discarded. A 10 mL aliquot of PBS was used to resuspend the hRBCs which were centrifuged again at 1000 rpm for 10 minutes. This PBS wash was completed two more times for a total of three washes. A 9 mL aliquot of PBS was added to the hRBCs, and 100 μL of cell solution was added to individual wells of a 96-well plate. Peptoid solutions (11.1 μL) were added to the appropriate wells in triplicate. A vehicle control of PBS and positive control of 1% Triton X-100 were added to wells in triplicate.
The plate was incubated at 37° C. for 1 hour and centrifuged at 1000 rpm for 10 minutes. For each well, 5 μL of supernatant was transferred to 95 μL of PBS in a new 96-well plate. The absorbance at 405 nm was measured using a SpectraMax M5 Plate Reader, and the percent hemolysis was calculated as follows: […]

[2] = Percent acetonitrile at elution during RP-HPLC purification (hydrophobicity); format: physicochemical; details: percent acetonitrile at the time of elution from HPLC
Description: All RMG8-8 derivatives were synthesized via the solid-phase submonomer synthesis method on polystyrene Rink Amide resin (Zuckermann et al. Journal of the American Chemical Society 114, 10646-10647 (1992)). The amines used during synthesis and the peptoid shorthand notations for each monomer are provided in Table 7 and Table 8, respectively. Compounds were purified to greater than 95% by RP-HPLC and compound identity was confirmed by ESI-TOF MS (Table 9). The calculated distribution coefficient at pH 7.4 (c Log D7.4) (via Chemaxon. MarvinSketch 19.17.0, 2019) and the percent acetonitrile at the time of elution during HPLC purification were recorded and serve as measures of hydrophobicity (Table 10). Higher values for c Log D7.4 and percent acetonitrile are indicators of increased compound hydrophobicity. With antimicrobial peptoids, hydrophobicity is directly related to both antimicrobial activity and cytotoxicity (Andreev et al. Biochimica et biophysica acta. Biomembranes 1860 6, 1414-1423 (2018); Bolt et al. Med chem comm 8, 886-896 (2017); Frederiksen et al. Molecules 24, (2019)). The ideal balance of these parameters generally must be determined experimentally. To measure antifungal activity, the minimum inhibitory concentration (MIC), defined as the concentration of compound required to inhibit 90% of fungal growth, was determined against C. neoformans using the broth microdilution method. Mammalian cytotoxicity was evaluated through a cell metabolic activity assay with HepG2 liver carcinoma cells, and select, potentially promising compounds were tested for unwanted hemolytic activity against human red blood cells.
Peptoids were purified via Reversed-Phase High-Performance Liquid Chromatography (RP-HPLC) using a Varian Prepstar SD-1. A gradient of 0-100% water to acetonitrile containing 0.05% TFA made up the mobile phase, and a Supelco Ascentis C18 column (5 μm; 25 cm×21.2 mm; Sigma-Aldrich 581347-U) was used as the stationary phase. Peaks in the chromatogram above 0.1 AU were collected and analyzed via mass spectrometry. The peak product with the desired peptoid was dried down in vacuo and lyophilized overnight. Peptoids were then reconstituted in sterile […] deionized water to create compound stocks of 20 mg/mL.

Row | % ACN [2] [%] | SMILES | HC10 hRBC ([1]; Example 1, 10% lysis, 1 hour) [µg/mL] | hRBC HC10 [1] [µg/mL]
1 |  | CCCCCCCCCCCCCNCC(=O)N(CC(=O)N(CCCCN)CC(=O)N(CCN)CC(=O)N(CC(N)=O)C1CCCCC1)C1CCCCC1 [RMG8-8, Ntri-Ncha-Nlys-Nae-Ncha] (H-[N(tridecyl)Gly][Gly(N-cHex)][Nlys][Gly(N-2-aminoethyl)][Gly(N-cHex)]-NH2) | 77 | 75 ± 31
2 | 68.1 | CCCCCCCCCCCCCNCC(=O)N(CC(=O)N(CCCCN)CC(=O)N(CCN)CC(=O)N(CC(N)=O)CC(C)C)CC(C)C [Compound 9] (H-[N(tridecyl)Gly][Nleu][Nlys][Gly(N-2-aminoethyl)][Nleu]-NH2) |  | 130 ± 45
